Measurements published in PubChem BioAssay (NCI).
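48-hour exposure; five concentrations; linearly interpolated endpoints. TGI: total growth inhibition.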

Key:
Test in all cases: NCI anticancer screen, dose series, 48 h
[1] = tested on: HOP-18 NSCLC
[2] = tested on: SF-539 CNS
[3] = tested on: NCI-H23 lung
[4] = tested on: KM20L2 colon
[5] = tested on: SNB-78 CNS
[6] = tested on: SNB-19 CNS
[7] = tested on: LOX IMVI melanoma
[8] = tested on: M14 melanoma
[9] = tested on: HCT-116 colon
[10] = tested on: DMS 273 small cell lung
[11] = tested on: MOLT-4 leukemia
[12] = tested on: OVCAR-3 ovarian
[13] = tested on: SK-MEL-28 melanoma
[14] = tested on: CCRF-CEM leukemia
[15] = tested on: DMS 114 small cell lung
[16] = tested on: UACC-62 melanoma
[17] = tested on: HCC-2998 colon
[18] = tested on: OVCAR-5 ovarian
[19] = tested on: CAKI-1 renal
[20] = tested on: DLD-1 colon
[21] = tested on: SW-620 colon
[22] = tested on: K-562 leukemia
[23] = tested on: SR leukemia
[24] = tested on: OVCAR-8 ovarian
[25] = tested on: HOP-62 NSCLC
[26] = tested on: UACC-257 melanoma
[27] = tested on: SK-MEL-5 melanoma
[28] = tested on: EKVX NSCLC
[29] = tested on: U251 CNS
[30] = tested on: NCI-H226 lung
[31] = tested on: SN12C renal
[32] = tested on: SF-295 CNS
[33] = tested on: IGROV1 ovarian
[34] = tested on: A498 renal
[35] = tested on: OVCAR-4 ovarian
[36] = tested on: HL-60(TB) leukemia
[37] = tested on: HT29 colon
[38] = tested on: SNB-75 CNS
[39] = tested on: NCI-H522 lung
[40] = tested on: COLO 205 colon
[41] = tested on: KM12 colon
[42] = tested on: XF 498 CNS
[43] = tested on: RXF 393 renal
[44] = tested on: 786-0 renal
[45] = tested on: M19-MEL melanoma
[46] = tested on: SK-OV-3 ovarian
[47] = tested on: MALME-3M melanoma
[48] = tested on: TK-10 renal
[49] = tested on: HOP-92 NSCLC
[50] = tested on: A549 NSCLC
[51] = tested on: SK-MEL-2 melanoma
[52] = tested on: UO-31 renal
[53] = tested on: LXFL 529 NSCLC
[54] = tested on: SF-268 CNS
[55] = tested on: ACHN renal
[56] = tested on: RXF-631 renal

In the case of `CCOC(=N)CC(=O)c1ccccc1`, the TGI [1] was > 100 µM, the TGI [2] was > 100 µM and the TGI [3] was > 100 µM. The TGI [4] was > 100 µM, the TGI [5] was > 100 µM and the TGI [6] was > 100 µM. For the same molecule, the TGI [7] was > 100 µM, the TGI [8] was > 100 µM and the TGI [9] was > 100 µM. The TGI [10] was > 100 µM, the TGI [11] was > 100 µM and the TGI [12] was > 100 µM. For the same molecule, the TGI [13] was > 100 µM, the TGI [14] was > 100 µM and the TGI [15] was > 100 µM. For the same molecule, the TGI [16] was > 100 µM, the TGI [17] was > 100 µM and the TGI [18] was > 100 µM. The TGI [19] was > 100 µM, the TGI [20] was > 100 µM and the TGI [21] was > 100 µM. For the same molecule, the TGI [22] was > 100 µM, the TGI [23] was > 100 µM and the TGI [24] was > 100 µM. The TGI [25] was > 100 µM, the TGI [26] was > 100 µM and the TGI [27] was > 100 µM. For the same molecule, the TGI [28] was > 100 µM, the TGI [29] was > 100 µM and the TGI [30] was > 100 µM. The TGI [31] was > 100 µM, the TGI [32] was > 100 µM and the TGI [33] was > 100 µM. For the same molecule, the TGI [34] was > 100 µM, the TGI [35] was > 100 µM and the TGI [36] was > 100 µM. For the same molecule, the TGI [37] was > 100 µM, the TGI [38] was > 100 µM and the TGI [39] was > 100 µM. The TGI [40] was > 100 µM, the TGI [41] was > 100 µM and the TGI [42] was > 100 µM. The TGI [43] was > 100 µM, the TGI [44] was > 100 µM and the TGI [45] was > 100 µM. For the same molecule, the TGI [46] was > 100 µM, the TGI [47] was > 100 µM and the TGI [48] was > 100 µM. For the same molecule, the TGI [49] was > 100 µM, the TGI [50] was > 100 µM and the TGI [51] was > 100 µM. For the same molecule, the TGI [52] was > 100 µM, the TGI [53] was > 100 µM and the TGI [54] was > 100 µM. For the same molecule, the TGI [55] was > 100 µM.

With `O=[N+]([O-])C1Cc2ccccc2OC1c1ccccc1` (stereo not drawn) the TGI [1] was > 100 µM, the TGI [2] was 89.2 µM and the TGI [3] was > 100 µM. The TGI [4] was > 100 µM, the TGI [5] was 51.5 µM and the TGI [6] was > 100 µM. For the same molecule, the TGI [7] was 31.9 µM, the TGI [8] was > 100 µM and the TGI [9] was > 100 µM. The TGI [10] was > 100 µM, the TGI [11] was 70.7 µM and the TGI [12] was > 100 µM. For the same molecule, the TGI [13] was > 100 µM, the TGI [14] was > 100 µM and the TGI [16] was > 100 µM. The TGI [17] was > 100 µM, the TGI [18] was > 100 µM and the TGI [19] was 99 µM. The TGI [20] was > 100 µM, the TGI [21] was > 100 µM and the TGI [22] was > 100 µM. The TGI [23] was 66.6 µM, the TGI [24] was > 100 µM and the TGI [25] was 83.2 µM. For the same molecule, the TGI [26] was > 100 µM, the TGI [27] was > 100 µM and the TGI [28] was > 100 µM. For the same molecule, the TGI [29] was > 100 µM, the TGI [56] was > 100 µM and the TGI [30] was > 100 µM. The TGI [31] was 63 µM, the TGI [32] was > 100 µM and the TGI [33] was > 100 µM. The TGI [34] was > 100 µM, the TGI [35] was > 100 µM and the TGI [36] was > 100 µM. For the same molecule, the TGI [37] was > 100 µM, the TGI [38] was 55.5 µM and the TGI [39] was > 100 µM. The TGI [40] was > 100 µM, the TGI [41] was > 100 µM and the TGI [43] was 45.8 µM. The TGI [44] was > 100 µM, the TGI [45] was > 100 µM and the TGI [46] was > 100 µM. The TGI [47] was > 100 µM, the TGI [48] was > 100 µM and the TGI [49] was > 100 µM. The TGI [50] was > 100 µM, the TGI [52] was > 100 µM and the TGI [53] was > 100 µM. For the same molecule, the TGI [54] was > 100 µM and the TGI [55] was > 100 µM.
